Results on four compounds are retold here after patent publication US12180159B2, “Activators of the unfolded protein response” (The Board of Trustees of the University of Illinois, priority 2018, dated 2024).

The test system of one data set is TDG cells (T47DERαD538G). The data set can be described thus: Trypan Blue exclusion cell death assay, TDG cells. The format is cell-based, human. The settings on record: 24 hours. An excerpt: (§1) TRYPAN BLUE: For decades, viable cells have been measured by their ability to exclude the dye Trypan Blue. […] Dead cells, which have lost membrane integrity, take up the dye and are blue. Thus, the percentage of dead cells is the percentage of cells that are Trypan Blue positive out of the total cell population. Quantitative assessment of Trypan Blue uptake uses a cell counter from Fisher. Since the assay is instrument based, there is no observer bias in determining the percentage of Trypan Blue positive cells.
(§2) TRYPAN BLUE ASSAYS: Assays are performed on cells in 6 well plates: 300,000 cells are plated in each well of a 6 well plate in 3 ml of medium. After 24 hours, the DMSO vehicle or the indicated compound is added (in 1000th of the vol.) The cells incubated for an additional 24 hours, and then harvested in 0.25 ml of trypsin, followed after harvest by 0.75 ml of medium. The cells are spun down and resuspended in 100-200 μl of medium left that is over the cell pellet (resuspend cells by pipetting up and down a few times). Add 10 μl to 10 μl of trypan blue. Then 10 μl is inserted into the counting slide. After inserting the slide into the Fisher TC20 counting is automatic (these many cells are needed because an accurate ratio of Trypan Blue positive to Trypan Blue negative cells requires about 200 cells in the field the instrument counts).
The Trypan Blue cell death assay was used to evaluate the ability of the active enantiomer of C-105 [(−)-105] to kill ERα positive TDG-Luc cells. For all studies, 300,000 TDG-Luc cells/well in 10% FBS were plated in a 6 well plate in triplicate. 24 hours after plating, the indicated concentrations the active enantiomer of (−)-105, or BHPI (top) ICI, or OHT (Lower left) or (+)-105 (lower right) were added. After 24 hours, the cells were harvested, and the % dead cells was determined by automated Trypan Blue exclusion using the Countess II automated hemocytometer. Percentage of viable cells was calculated by doing 100−(Cell Death %). (n=3±SEM).
TDG cells were incubated for 24 hours with 75 nM of BHPI or 75 nM of each of the indicated test compounds: 4, 6 and (±)-105 (enantiomers not separated). Cell death was determined using the instrument-based Trypan Blue exclusion assay. Structures are in the Synthesis section. […] (n=3±SEM).

Data set [1] deals with T47D cells. The settings on record: 24 hours, up to 1,000 nM. On the procedure: One such change is loss of plasma membrane polarity. This is monitored using Annexin V. Dying cells also take up the dye propidium iodide. Propidium iodide (PI) fluoresces when it is intercalated into DNA. These assays monitor cells at specific stages of cell death.
FLOW CYTOMETRY (FITC) ASSAYS: Cells were seeded in 12-well plates, 75,000 cells/well, and allowed to adhere overnight. The next day, the indicated concentrations of raptinal (positive control), (−)-105, (±)-105, and (+)-105 were added and allowed to incubate at 37° C. for 24 hours (Final Volume: 1 ml, 0.1% DMSO). After incubation, cells were harvested and resuspended in 350 μl of cold Annexin binding buffer (10 mM HEPES, 140 mM NaCl, 2.5 mM CaCl2, pH 7.4) premixed with Annexin V-FITC and PI dyes. Samples were analyzed on a BD Biosciences LSRII flow cytometer, and data analysis was performed using FSC Express Version 5-6. Cell death was assessed relative to a DMSO treated control.
T47D, human breast cancer cells were plated at 75,000 cells/well. […] After 24 hours viable cells were determined by FACS using annexin V-FITC and propidium iodide dyes. […]
75,000 ERα positive T47D, human breast cancer cells, were plated/well. […] After 24 hours viable cells were determined by FACS using annexin V-FITC and propidium iodide dyes. […]

In data set [2] the test system is ERα positive breast cancer. The data set can be described thus: Mouse xenograft model of ERα positive breast cancer (BHPI). The format is in vivo. The settings on record: at reasonable doses.
The test system of data set [3] is ERα Negative MCF-10A cells. Kind of data set: Trypan Blue exclusion cell death assay, MCF-10A cells. The settings on record: 75 nM, 24 hours. The format is cell-based.
Excerpt: as §1, §2
In FIG. 28, neither the test compounds nor BHPI kill non-tumorigenic ERα Negative MCF-10A breast cells. ERα Negative MCF-10A cells were maintained for 24 hours in DMSO vehicle or 75 nM of BHPI or 75 nM of each of the indicated test compounds: 4, 6 and 105. Cell death was determined using the instrument-based Trypan Blue exclusion assay. (n=3±SEM).

The next data set relates to TYS-Luc cells. The data set can be described thus: Long-term cell culture experiment, TYS-Luc cells (MTS). In kind it is cell-based, human. The settings on record: 2 weeks 1 μM, then 4 weeks without drug. Here is the method:
To simulate the effect of several weeks of treatment of a tumor in a mouse xenograft, long-term cell culture experiments were performed. TYS-Luc cells (T47DERαY537S-Luc cells; ERαY537S is the most lethal ERα mutation seen in metastatic breast cancer) were plated at 4,000 cells/well in 96 well plates. […] After 2 weeks (medium change every 2 days) cell number was determined using MTS and a standard curve of absorbance versus cell number for TYS-Luc cells. Notes: (i) Bars denote the BHPI and (−)-105 arms of the experiment. No drug is present during regrow. […] This allows any surviving cells to regrow. After 4 weeks the cells were assayed using MTS. […] (Note: Visual inspection of the wells confirmed that there were no cells in the well treated for 2 weeks with active (−)-105.) To test whether the cells that regrew after BHPI treatment were resistant to BHPI they were re-treated for another cycle (BHPI Retreat) and shown to retain sensitivity to BHPI killing. (n=8 biological replicates±SEM.

Data set [4] has as its system partially BHPI-resistant T47D clones 1, 3, 8, and 11. Kind of data set: Growth of partially BHPI-resistant T47D clones (MTS). The settings on record: 100 nM and 1 μM, 4 days. In kind it is cell-based, human. Here is the method: (§3) ERα containing T47D human breast cancer cells able to survive in 1 μM BHPI were selected by clonal outgrowth. The effect of 100 nM and 1 μM BHPI and (−)-105 on growth of the (BHPI-sensitive) parental T47D cells and partially BHPI-resistant T47D clones 1, 3, 8, and 11 was evaluated. 4,000 cells/well were plated. Cell number was determined by MTS assay from a standard curve of absorbance versus cell number. […] Thus, in 4 days (−)-105 killed some, but not all, of the resistant cells.

The subject of data set [5] is (BHPI-sensitive) parental T47D cells. Kind of data set: Growth of parental T47D cells (MTS). In kind it is cell-based, human. The settings on record: 100 nM and 1 μM, 4 days. Here is the method: as §3
Data set [6] concerns T47D, TYS-4 and TDG-1 cells. Kind of data set: MTS proliferation assay, T47D, TYS and TDG cells. In kind it is cell-based, human. The settings on record: 4 days. On the procedure:
FIG. 30 compares the ability of BHPI and test compounds to inhibit proliferation of T47D, TYS and TDG cells. T47D cells were in medium containing 10 FBS (which contains estrogen), TYS-4 and TDG-1 cells were in medium containing 10% cd-FBS (estrogen depleted). Cells are plated at 2,000 cells/well in 96 well plates. After 24 hours in medium containing FBS or charcoal-dextran treated FBS (depleted of endogenous estrogens), the indicated concentration of each compound (in DMSO at 1/1000th of the volume of medium) was added. After 2 days the medium was changed, and the compounds were added again. After 2 additional days (4 days total) MTS assays are used to evaluate cell proliferation. (n=6±S.E.M.).
(Formazan colour is commonly taken as a measure of viable cells.)

In a further data set the test system is Caov-3 cells. The data set can be described thus: Cell death of Caov-3 ovarian cancer cells (automated Trypan Blue exclusion). The format is cell-based, human. The settings on record: 24 hours. On the procedure: FIG. 33. 105, but not BHPI, kills therapy-resistant ovarian CaOV-3 ovarian cancer cells. (±)-105; Cell death assay: Automated Trypan Blue exclusion. (24 hours post (±)-105) FIG. 34. (−)105 nearly eradicates ER+ drug-resistant tumors. Orthotopic breast cancer model, TYS-Luc cells, 40 mg/kg (−)-105 i.p., daily. 7 d Post injection image is a much longer exposure at higher gain than before injection image.
Caov3: Drug resistant ERα positive ovarian cancer cells. […] These cells are completely resistant to tamoxifen and fulvestrant and partially resistant to cisplatin and paclitaxel.

A further data set has as its system TYS cells (T47DERαY537S). The data set can be described thus: Trypan Blue exclusion cell death assay, TYS cells. The format is cell-based, human. The settings on record: 24 hours.
Excerpt: as §1, §2
TYS cells were incubated for 24 hours with 35 nM of BHPI or 35 nM of each of the indicated test compounds: 2, 4, and 105. Cell death was determined using the instrument-based Trypan Blue exclusion assay. (n=3±SEM).
TYS cells were incubated for 24 hours with 50 nM of BHPI or 50 nM of each of the indicated test compounds: 4, 6 and 105. Cell death was determined using the instrument-based Trypan Blue exclusion assay. (n=3±SEM).

The test system of data set [7] is T47D cells. The data set can be described thus: Trypan Blue exclusion cell death assay, T47D cells. The settings on record: 75 nM, 24 hours. The format is cell-based, human.
Excerpt: as §1
TRYPAN BLUE ASSAYS: Assays are performed on cells in 6 well plates: 300,000 cells are plated in each well of a 6 well plate in 3 ml of medium. After 24 hours, the DMSO vehicle or the indicated compound is added (in 1000th of the vol.) The cells incubated for an additional 24 hours, and then harvested in 0.25 ml of trypsin, followed after harvest by 0.75 ml of medium. […]
T47D cells were incubated for 24 hours with 75 nM of BHPI or 75 nM of each of the indicated test compounds: 4 and 6. Cell death was determined using the instrument-based Trypan Blue exclusion assay. […]
T47D cells were treated for 24 hours with 100 nM BHPI, or with 100 nM of each of the test compounds: 6, 8, and 105. […] Cell death was determined using the instrument-based Trypan Blue exclusion assay. […]

In data set [8] the test system is ATP levels in TYS-Luc cells. Kind of data set: Intracellular ATP levels. The format is cell-based, human. The settings on record: 10,000 nM thapsigargin with 1,000 nM (−)-105, 1 hr. Here is the method: TYS-Luc cells were maintained DMSO vehicle (Veh), 1,000 nM BHPI, 1,000 nM (−)-105 with and without 10,000 nM thapsigargin (THG) for the indicated times. ATP levels were determines using a kit and relative ATP levels were from a standard curve. […] (n=3±SEM).

In another data set the test system is MCF-7 and TYS-Luc cells. Kind of data set: Cell death with 2-APB or thapsigargin (Trypan Blue exclusion). The format is cell-based, human. The settings on record: thapsigargin, TYS-Luc cells, 1 hour. Here is the method: ERα positive MCF-7 and TYS-Luc were treated with DMSO vehicle (Veh), or BHPI or (−)-105 plus or minus 2-APB for the indicated times. Cells death was determined using the instrument-based Trypan Blue exclusion assay. […] This is consistent with (−)-105 inducing powerful lethal activation of the anticipatory UPR pathway. (n=3±SEM). […] TYS-Luc cells were maintained in DMSO vehicle (Veh) or BHPI, or (−)-105 with or without thapsigargin (THG) for the indicated times. Blocking the decline in ATP levels (FIG. 19) with THG inhibited (−)-105-induced cell death. […] (n=3±SEM).

For the compound `CC/C(=C(\c1ccc(O)cc1)c1ccc(OCCN(C)C)cc1)c1ccccc1` [OHT, z-4-hydroxytamoxifen, reference compound], the “killing of TDG-Luc cells” value with TDG cells (T47DERαD538G) (dose response, TDG-Luc cells) is listed as “do not kill”. Further, the “cytotoxic or cytostatic phenotype” value in the data set on T47D cells [1] was “cytostatic”.

Take `Cc1cccc2c1NC(=O)C2(c1ccc(O)cc1)c1ccc(O)cc1` [BHPI, reference compound]: the “effect on tumor growth” value in data set [2] is “stopped tumor growth and induced rapid and substantial tumor regression”. Further, the “death of ERα Negative MCF-10A cells” value in data set [3] is “neither BHPI nor any of the test compounds induce significant death”. Moreover, the “regrowth of cells after treatment” value in the data set on TYS-Luc cells is reported as “robust regrowth”. Also, the “growth of the BHPI-resistant clones” value in data set [4] was “inhibited growth but could not stop growth of the resistant clones”. Moreover, in data set [5], the “growth / killing of parental T47D cells” value was “blocked growth and killed many of the T47D cells”. Moreover, in data set [6], the inhibition of proliferation result is “effectively inhibit proliferation”. The “killing of Caov-3 ovarian cancer cells” value with Caov-3 cells is on record as “blocks growth of Caov-3 cells but does not kill them”. Moreover, in the data set on OVCAR-3 cells (OVCAR-3 orthotopic xenograft), the “effect on tumor growth / tumors” value is recorded as “strongly reduced tumor growth”. For the same compound, the tolerability in mice entry in the data set with OVCAR-3 cells (in both studies) is on record as “well tolerated”.

`COc1ccc(C2(c3ccc(O)cc3)C(=O)Nc3c(C(F)(F)F)cccc32)cc1` (stereo not shown) [compound 4, 3-(4-hydroxyphenyl)-3-(4-methoxyphenyl)-7-(trifluoromethyl)indolin-2-one]: the “ability to kill TDG cells compared to BHPI” value in the data set on TDG cells (T47DERαD538G) (75 nM) is given as “greatly increased ability to kill”. The figures for the “ability to kill TYS cells compared to BHPI” value with TYS cells (T47DERαY537S) (35 nM) and in the data set on TYS cells (T47DERαY537S) (50 nM) were “greatly increased ability to kill” and “increased ability to kill”, respectively. The “ability to kill T47D cells (wild type estrogen receptor)” value with T47D cells [7] is reported as “greatly increased ability to kill”. In addition, the “death of ERα Negative MCF-10A cells” value in data set [3] is reported as “neither BHPI nor any of the test compounds induce significant death”. The “effectiveness in killing ERα positive breast cancer cells compared to BHPI” value in [6] is “more effective than BHPI”.

Consider `C/C=C(/C)C(=O)O[C@H]1C(C)=C2[C@H]([C@@H]1OC(=O)CCCCCCC)[C@@](C)(OC(C)=O)C[C@H](OC(=O)CCC)[C@@]1(O)[C@H]2OC(=O)[C@@]1(C)O` [THG, thapsigargin, reference compound], for which the “effect on (−)-105-induced decline in ATP levels” value in data set [8] is listed as “completely blocked”. For the same compound, the “effect on (−)-105-induced cell death” value with MCF-7 and TYS-Luc cells is “strong inhibition”.
